Reference: patent US5290795A, “Substituted urea compound and use” (Novo Nordisk N/A, priority 1990, dated 1994)

Tests used:
[1] = target: T1, 5-HT3 receptor (Mus musculus, UniProt P23979); assay: 5-HT3 receptor binding to N1E-115 neuroblastoma cells (3H-Quipazine displacement); conditions: for displacement of 3H-Quipazine binding: specificity of the assay, N1E-115 neuroblastoma cells, in words
T1 construct: Harvested cells were homogenized in Tris buffer; endogenous in cells; host or cells: N1E-115 mouse neuroblastoma cells
T1 sequence (P23979 24-489): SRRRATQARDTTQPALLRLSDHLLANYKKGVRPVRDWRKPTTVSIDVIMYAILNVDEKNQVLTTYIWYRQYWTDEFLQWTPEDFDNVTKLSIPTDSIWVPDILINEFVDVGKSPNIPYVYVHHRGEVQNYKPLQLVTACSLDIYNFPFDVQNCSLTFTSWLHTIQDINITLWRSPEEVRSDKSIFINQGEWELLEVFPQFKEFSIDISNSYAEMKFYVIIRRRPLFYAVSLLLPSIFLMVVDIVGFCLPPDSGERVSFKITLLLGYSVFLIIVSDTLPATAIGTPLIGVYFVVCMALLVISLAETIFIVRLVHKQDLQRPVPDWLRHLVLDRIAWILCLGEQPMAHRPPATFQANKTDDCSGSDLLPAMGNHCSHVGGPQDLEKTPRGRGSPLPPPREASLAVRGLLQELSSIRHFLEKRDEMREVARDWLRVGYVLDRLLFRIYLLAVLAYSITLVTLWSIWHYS
Procedure: 5-HT3 Receptor Binding to N1E-115 Neuroblastoma Cells
The binding of 3H-quipazine to N1E-115 neuroblastoma cells in-vitro was determined by a modification of the method of Hoyer and Neijt (Hoyer, D. and Neijt, H. C., 1988, Molecular Pharmacology, 33:303-309). […] The cells were grown to a density of 8-15×10^7 cells per bottle and harvested by vigorous shaking. Harvested cells were homogenized in Tris buffer (20 mm, pH=7.5) containing 154 mM NaCl using a Brinkmann Polytron. The homogenate was centrifuged at 900×g and the supernatant was used directly in the binding assay. The supernatant was diluted at a concentration of 2×10^6 cells per ml in Tris buffer. Binding assays consisted of 50 μL 3H-Quipazine (1 nM final concentration), 250 μL membrane suspension, and 200 μL drug or buffer. Nonspecific binding was determined by the addition of 10 μM MDL 72222. Tubes were incubated at […] for 60 minutes, followed by filtration through GFB filters under vacuum. The filters were then washed with ice-cold Tris buffer.

[2] = target: T2, 5-HT3 receptor (Cavia porcellus, UniProt O70212); assay: Inhibition of 5-HT-induced contractions in isolated guinea pig ileum; format: cell-based; conditions: methysergide 10^-6 M, 20 min incubation, 5-HT contact time 30 sec, 37° C., read-out: A2 (concentration of the antagonist giving a dose ratio of 2) (converted)
T2 construct: the terminal 15 cm of ileum removed, and 1.5-2.0 cm lengths prepared and mounted in 10 ml organ baths; from tissue; host or cells: isolated guinea pig terminal ileum
T2 sequence (O70212 24-490 limits assumed): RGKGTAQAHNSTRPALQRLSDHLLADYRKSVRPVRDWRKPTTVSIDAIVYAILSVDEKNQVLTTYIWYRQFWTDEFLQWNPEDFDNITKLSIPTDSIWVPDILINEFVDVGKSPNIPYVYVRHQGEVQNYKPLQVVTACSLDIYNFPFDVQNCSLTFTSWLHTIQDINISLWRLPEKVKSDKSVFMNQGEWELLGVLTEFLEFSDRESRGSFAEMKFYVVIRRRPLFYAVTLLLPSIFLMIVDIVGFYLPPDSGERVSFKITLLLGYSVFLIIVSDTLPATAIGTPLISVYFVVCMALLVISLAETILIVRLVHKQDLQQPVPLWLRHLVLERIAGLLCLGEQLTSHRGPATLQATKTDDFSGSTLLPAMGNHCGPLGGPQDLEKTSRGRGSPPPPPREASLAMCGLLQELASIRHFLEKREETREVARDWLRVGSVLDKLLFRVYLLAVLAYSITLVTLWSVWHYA
Procedure: Inhibition of 5-HT-Induced Contractions in Isolated Guinea Pig Ileum
Compounds of formula (I) were tested for their 5HT3 -antagonist activity using the following method:
5-HT produces contractions of the guinea pig ileum via 2 different receptors. 1) direct contractions via 5-HT2 receptors on the muscle, 2) indirect contractions via 5-HT3 receptors on intrinsic gut neurones, producing acetylcholine release. By administering 5-HT to lengths of ileum in the presence of methysergide (to block 5-HT2 receptors) you can assay 5-HT3 receptor activity.
Guinea pigs were killed by means of cervical dislocation the terminal 15 cm of ileum removed, and 1.5-2.0 cm lengths prepared and mounted in 10 ml organ baths containing calcium deficient tyrodes of the following composition (mM) NaCl (136.9); KCl (2.68); CaCl2 (0.9); MgCl2 (1.05); NaCO3 (11.9); NaH2 PO4 (0.42); glucose (5.55) and containing methysergide (10^-6 M) maintained at 37° C. and gassed with 95% O2 and 5% CO2. The mechanical activity of the muscle was measured by a HSE 351 isometric transducer connected via a HSE bridge amplifier to a potentiometric pen recorder. […]
The maximum response to acetylcholine for each tissue is measured and the responses to 5-HT calculated as percentage maximum of the acetylcholine (Ach) maximum response in that tissue. The peak of the 5-HT response is measured. […]

SMILES | displacement of 3H-Quipazine binding [1] | IC50 [1] | Kb [2]
CN1[C@@H]2CC[C@H]1C[C@@H](OC(=O)c1c[nH]c3ccccc13)C2 [ICS 205-930] | potent displacers | – | –
O=C(c1ccc(F)cc1)C1CCN(CCn2c(=O)[nH]c3ccccc3c2=O)CC1 [ketanserin] | inability | – | –
c1ccc2nc(N3CCNCC3)ccc2c1 [quipazine] | potent displacers | – | –
CN1[C@@H]2CC[C@H]1C[C@@H](OC(=O)c1cc(Cl)cc(Cl)c1)C2 [MDL 72222] | potent displacers | – | –
CCCN(CCC)C1CCc2cccc(O)c2C1 (stereo not shown) [Example 8-OH-DPAT] | inability | – | –
CCCCc1noc(-c2sccc2NC(=O)N[C@H]2C[C@H]3CCC[C@@H](C2)N3C)n1 [Example 7, N-(2-(3-Butyl-1,2,4-oxadiazol-5-yl)-3-thienyl)-N^1-(endo-9-methyl-9-azabicyclo[3.3.1]non-3-yl)urea] | – | 0.0023 µM | 24.8 µM
CN1[C@@H]2CCC[C@H]1C[C@@H](NC(=O)Nc1ccsc1-c1nc(C3CC3)no1)C2 [Example 4, N-(2-(3-Cyclopropyl-1,2,4-oxadiazol-5-yl)-3-thienyl)-N^1 - (endo-9-methyl-9-azabicyclo[3.3.1]non-3yl)urea] | – | 0.0067 µM | 103 µM
COc1cc(N)c(Cl)cc1C(=O)NC1CN2CCC1CC2 (stereo not shown) [zacopride] | potent displacers | – | –
